Where a name gives a salt, the structure may show the parent alone.
Target: HPK1 (MAP4K1) (Homo sapiens, UniProt Q92918)
Assay: FRET Assay for HPK1 (MAP4K1): one step binding assay, displacement of labeled tracer
Conditions: for inhibition at 1 µM: 1 μM compound; for inhibition at 1 µM / inhibition at 10 µM: FRET ratio 665/620, percent of control; for inhibition at 10 µM: 10 μM compound; for IC50: dose response curve, nonlinear regression
In short: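 TR-FRET tracer-displacement binding assay. GST-tagged HPK1 (10 nM) and Eu-anti-GST antibody (4 nM) were pre-incubated with compound on ice for 15 min in 50 mM HEPES pH 7.5, 10 mM MgCl2, 1 mM EGTA, 0.01% Brij-35 (3% DMSO final). Kinase Tracer 222 (20 nM) was then added for 1 h at room temperature. IC50 came from nonlinear regression of percent of control; percent inhibition was also given at 1.0 and 10.0 μM.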

HPK1 (MAP4K1), sequence (Q92918 whole entry): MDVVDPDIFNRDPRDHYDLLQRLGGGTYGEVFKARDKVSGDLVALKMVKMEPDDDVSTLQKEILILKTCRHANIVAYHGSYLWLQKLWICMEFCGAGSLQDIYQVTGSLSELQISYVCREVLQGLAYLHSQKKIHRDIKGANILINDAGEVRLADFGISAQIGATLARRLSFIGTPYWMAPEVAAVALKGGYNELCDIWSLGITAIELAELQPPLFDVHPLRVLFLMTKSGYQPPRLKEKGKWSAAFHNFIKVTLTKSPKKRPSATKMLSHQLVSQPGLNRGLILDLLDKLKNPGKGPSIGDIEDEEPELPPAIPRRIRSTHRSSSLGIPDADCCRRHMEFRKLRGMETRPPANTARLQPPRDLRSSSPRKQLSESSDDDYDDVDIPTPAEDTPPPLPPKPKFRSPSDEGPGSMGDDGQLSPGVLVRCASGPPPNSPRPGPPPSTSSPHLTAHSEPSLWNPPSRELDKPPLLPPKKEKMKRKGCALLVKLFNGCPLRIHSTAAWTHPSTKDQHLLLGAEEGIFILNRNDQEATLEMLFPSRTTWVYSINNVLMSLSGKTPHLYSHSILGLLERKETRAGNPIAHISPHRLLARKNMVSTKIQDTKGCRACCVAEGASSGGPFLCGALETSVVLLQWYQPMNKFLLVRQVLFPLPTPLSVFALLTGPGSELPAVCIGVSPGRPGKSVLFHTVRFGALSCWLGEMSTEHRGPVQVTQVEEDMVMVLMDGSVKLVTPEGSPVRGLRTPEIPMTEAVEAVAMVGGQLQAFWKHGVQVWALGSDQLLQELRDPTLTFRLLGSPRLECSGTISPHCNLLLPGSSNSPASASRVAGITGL

Row | Structure (SMILES) | inhibition at 1 µM [%] | inhibition at 10 µM [%] | IC50 [µM]
1 | COc1cccc(F)c1-c1cc2c(cn1)NC(=O)/C2=C(/C)Nc1cnn(C(F)F)c1 [Example 65, (Z)-3-(1-((1-(Difluoromethyl)-1H-pyrazol-4-yl)amino)ethylidene)-5-(2-fluoro-6-methoxyphenyl)-1H-pyrrolo[2,3-c]pyridin-2(3H)-one] | 79.7 | 75.5 | 0.05 to 0.1
2 | C/C(Nc1cnn(CC(F)(F)F)c1)=C1/C(=O)Nc2cnc(-c3cnccc3C)cc21 [Example 69, (Z)-5-(4-Methylpyridin-3-yl)-3-(1-((1-(2,2,2-trifluoroethyl)-1H-pyrazol-4-yl)amino)ethylidene)-1H-pyrrolo[2,3-c]pyridin-2(3H)-one] | 67 | 65.5 | 
3 | CC(=O)N1CCN(c2ccc(N/C(C)=C3\C(=O)Nc4cnc(-c5cnccc5C)cc43)cn2)CC1 [Example 70, (Z)-3-(1-((6-(4-Acetylpiperazin-1-yl)pyridin-3-yl)amino)ethylidene)-5-(4-methylpyridin-3-yl)-1H-pyrrolo[2,3-c]pyridin-2(3H)-one] | 69.5 | 69.9 | 
4 | COc1cccc(F)c1-c1cc2c(cn1)NC(=O)/C2=C(/C)NC1CCNCC1 [Example 72, (Z)-5-(2-Fluoro-6-methoxyphenyl)-3-(1-(piperidin-4-ylamino)ethylidene)-1H-pyrrolo[2,3-c]pyridin-2(3H)-one trihydrochloride] | 39.8 | 68.6 | 
5 | CCn1ccc(N/C(C)=C2\C(=O)Nc3cnc(-c4cnccc4C)cc32)n1 [Example 73, (Z)-3-(1-((1-Ethyl-1H-pyrazol-3-yl)amino)ethylidene)-5-(4-methylpyridin-3-yl)-1H-pyrrolo[2,3-c]pyridin-2(3H)-one] | 69.6 | 63.9 | < 0.05
6 | C/C(Nc1ccc(N2CCNCC2)cn1)=C1/C(=O)Nc2cnc(-c3cnccc3C)cc21 [Example 74, (Z)-5-(4-Methylpyridin-3-yl)-3-(1-((5-(piperazin-1-yl)pyridin-2-yl)amino)ethylidene)-1H-pyrrolo[2,3-c]pyridin-2(3H)-one] | 76.3 |  | < 0.05
7 | CNC(=O)c1cc(N/C(C)=C2\C(=O)Nc3cnc(-c4cnccc4C)cc32)nn1C [Example 75, (Z)-N,1-Dimethyl-3-((1-(5-(4-methylpyridin-3-yl)-2-oxo-1H-pyrrolo[2,3-c]pyridin-3(2H)-ylidene)ethyl)amino)-1H-pyrazole-5-carboxamide] | 71 | 74 | < 0.05
8 | C/C(Nc1ccn(C2COC2)n1)=C1/C(=O)Nc2cnc(-c3cnccc3C)cc21 [Example 76, (Z)-5-(4-Methylpyridin-3-yl)-3-(1-((1-(oxctan-3-yl)-1H-pyrazol-3-yl)amino)ethylidene)-1H-pyrrolo[2,3-c]pyridin-2(3H)-one] | 70.3 | 69 | < 0.05
9 | C/C(Nc1ccc(N2CCN(C3COC3)CC2)nc1)=C1/C(=O)Nc2cnc(-c3cnccc3C)cc21 [Example 77, (Z)-5-(4-Methylpyridin-3-yl)-3-(1-((6-(4-(oxetan-3-yl)piperazin-1-yl)pyridin-3-yl)amino)ethylidene)-1H-pyrrolo[2,3-c]pyridin-2(3H)-one] | 73 | 80.3 | < 0.05
10 | C/C(Nc1cnn(CC(C)(C)O)c1)=C1/C(=O)Nc2cnc(-c3cnccc3C)cc21 [Example 78, (Z)-3-(1-((1-(2-Hydroxy-2-methylpropyl)-1H-pyrazol-4-yl)amino)ethylidene)-5-(4-methylpyridin-3-yl)-1H-pyrrolo[2,3-c]pyridin-2(3H)-one] | 84.2 | 83.1 | < 0.05
11 | CCS(=O)(=O)n1cc(N/C(C)=C2\C(=O)Nc3cnc(-c4cnccc4C)cc32)cn1 [Example 80, (Z)-3-(1-((1-(Ethylsulfonyl)-1H-pyrazol-4-yl)amino)ethylidene)-5-(4-methylpyridin-3-yl)-1H-pyrrolo[2,3-c]pyridin-2(3H)-one] | 75.1 | 78 | < 0.05
12 | C/C(Nc1ccn(C(F)F)n1)=C1/C(=O)Nc2cnc(-c3cnccc3C)cc21 [Example 81, (Z)-3-(1-((1-(Difluoromethyl)-1H-pyrazol-3-yl)amino)ethylidene)-5-(4-methylpyridin-3-yl)-1H-pyrrolo[2,3-c]pyridin-2(3H)-one] | 73.8 | 82.2 | < 0.05
13 | COc1cccc(F)c1-c1cc2c(cn1)NC(=O)/C2=C(/C)Nc1cnn(C(C)(C)C#N)c1 [Example 82, (Z)-2-(4-((1-(5-(2-Fluoro-6-methoxyphenyl)-2-oxo-1H-pyrrolo[2,3-c]pyridin-3(2H)-ylidene)ethyl)amino)-1H-pyrazol-1-yl)-2-methylpropanenitrile] | 70.6 | 79.9 | < 0.05
14 | C/C(Nc1ccn(C2CCOCC2)n1)=C1/C(=O)Nc2cnc(-c3cnccc3C)cc21 [Example 83, (Z)-5-(4-Methylpyridin-3-yl)-3-(1-((1-(tetrahydro-2H-pyran-4-yl)-1H-pyrazol-3-yl)amino)ethylidene)-1H-pyrrolo[2,3-c]pyridin-2(3H)-one] | 27.7 | 43.5 | 
15 | C/C(Nc1ccc(OC2CCNCC2)nc1)=C1/C(=O)Nc2cnc(-c3cnccc3C)cc21 [Example 84, (Z)-5-(4-Methylpyridin-3-yl)-3-(1-((6-(piperidin-4-yloxy)pyridin-3-yl)amino)ethylidene)-1H-pyrrolo[2,3-c]pyridin-2(3H)-one] | 75.2 | 70.4 | < 0.05
16 | C/C(Nc1cnn(C)c1)=C1/C(=O)Nc2cnc(-c3cncc4c3OCC(=O)N4)cc21 [Example 85, (Z)-8-(3-(1-((1-Methyl-1H-pyrazol-4-yl)amino)ethylidene)-2-oxo-2,3-dihydro-1H-pyrrolo[2,3-c]pyridin-5-yl)-2H-pyrido[4,3-b][1,4]oxazin-3(4H)-one] | 78.2 |  | < 0.05

Second part, the molecule after the results:

Row | inhibition at 1 µM [%] | inhibition at 10 µM [%] | IC50 [µM] | Structure (SMILES)
17 | 78 | 78.2 | < 0.05 | C/C(Nc1ccc(N2CCOCC2)cc1)=C1/C(=O)Nc2cnc(-c3cnccc3C)cc21 [Example 59, (Z)-5-(4-Methylpyridin-3-yl)-3-(1-((4-morpholinophenyl)amino)ethylidene)-1H-pyrrolo[2,3-c]pyridin-2(3H)-one]
18 | 74 | 72.7 | < 0.05 | COCCn1cc(N/C(C)=C2\C(=O)Nc3cnc(-c4cnccc4C)cc32)cn1 [Example 60, (Z)-3-(1-((1-(2-Methoxyethyl)-1H-pyrazol-4-yl)amino)ethylidene)-5-(4-methylpyridin-3-yl)-1H-pyrrolo[2,3-c]pyridin-2(3H)-one]
19 | 71.6 | 81.3 | < 0.05 | C/C(Nc1cnn(CC(F)F)c1)=C1/C(=O)Nc2cnc(-c3cnccc3C)cc21 [Example 61, (Z)-3-(1-((1-(2,2-Difluoroethyl)-1H-pyrazol 4-yl)amino)ethylidene)-5-(4-methylpyridin-3-yl)-1H pyrrolo[2,3-c]pyridin-2(3H)-one]
20 | 80.3 | 94.7 | < 0.05 | C/C(Nc1cnn(C)c1)=C1/C(=O)Nc2ccc(-c3cnccc3C)nc21 [Example 62, (Z)-3-(1-((1-Methyl-1H-pyrazol-4-yl)amino)ethylidene)-5-(4-methylpyridin-3-yl)-1H-pyrrolo[3,2-b]pyridin-2(3H)-one]
21 | 89.8 | 97.1 | < 0.05 | C/C(Nc1ccn(C)n1)=C1/C(=O)Nc2ccc(-c3cnccc3C)nc21 [Example 63, (Z)-3-(1-((1-Methyl-1H-pyrazol-34yl)amino)ethylidene)-5-(4-methylpyridin-3-yl)-1H-pyrrolo[3,2-b]pyridin-2(3H)-one]
22 | 83.3 | 91.2 | < 0.05 | C/C(Nc1cn[nH]c1)=C1/C(=O)Nc2cnc(-c3cnccc3C)cc21 [Example 64, (Z)-3-(1-((1H-Pyrazol-4-yl)amino)ethylidene)-5-(4-methylpyridin-3-yl)-1H-pyrrolo[2,3-c]pyridin-2(3H)-one]
23 | 74.1 | 76.2 | < 0.05 | C/C(Nc1cnn(C(F)F)c1)=C1/C(=O)Nc2cnc(-c3cnccc3C)cc21 [Example 66, (Z)-3-(1-((1-(Difluoromethyl)-1H-pyrazol-4-yl)amino)ethylidene)-5-(4-methylpyridin-3-yl)-1H-pyrrolo[2,3-c]pyridin-2(3H)-one]
24 | 74 | 71.4 | < 0.05 | C/C(Nc1cnn(CC2CC2)c1)=C1/C(=O)Nc2cnc(-c3cnccc3C)cc21 [Example 67, (Z)-3-(1-((1-(Cyclopropylmethyl)-1H-pyrazol-4-yl)amino)ethylidene)-5-(4-methylpyridin-3-yl)-1H-pyrrolo[2,3-c]pyridin-2(3H)-one]
25 | 77.5 | 75.3 | < 0.05 | COc1ccncc1-c1cc2c(cn1)NC(=O)/C2=C(/C)Nc1ccn(C)n1 [Example 68, (Z)-5-(4-Methoxypyridin-3-yl)-3-(1-((1-methyl-1H-pyrazol-3-yl)amino)ethylidene)-1H-pyrrolo[2,3-c]pyridin-2(3H)-one]
26 | 71.7 | 72.7 | < 0.05 | COc1cccc(F)c1-c1cc2c(cc1C#N)NC(=O)/C2=C(/C)Nc1cnn(C)c1 [Example 71, (Z)-5-(2-Fluoro-6-methoxyphenyl)-3-(1-((1-methyl-1H-pyrazol-4-yl)amino)ethylidene)-2-oxoindoline-6-carbonitrile]

Source: patent US20230009626A1 (ICHNOS SCIENCES S.A., priority 2018, published 2023)
